According to PubChem BioAssay AID2060510 (Molecular Pharmacology Branch, DTP, NCI, 2025):

Test system: 439559-082-T-J2-PDC spheroids viability
Experiment: Anticancer human tumor 439559-082-T-J2-PDC patient-derived colon adenocarcinoma cell line growth inhibition [GQUAD]
Conditions: for IC50: curve of first compound; for viability, T/C: stronger effect = lower value; active means viability on the fitted dose curve at most 10% of control; inactive means the rest
How it was run: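 Viability of tumor cells grown as complex spheroids with endothelial and stromal cells, exposed to drug combinations. Top concentration at or near clinical Cmax (else 10 microM), diluted in half-log increments.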
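Further: spheroids exposed to the agents for 7 days before readout.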
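Wherever viability, T/C is given: percent of luminescence signal in DMSO vehicle wells taken as 100% viability.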

CC(C)(O)C1CCC(Nc2ccc3ncc(-c4cccc(C(F)(F)F)c4)n3n2)CC1 (configuration not stated) + Cc1cnc(CNC(=O)c2c(=O)c3ccc(N4CCCN(C)CC4)nc3n3c2sc2ccccc23)cn1
1760 nM: IC50 (second compound 0.1 µM)
1180 nM: IC50 (second compound 1 µM)
1680 nM: IC50 (second compound 0.0316 µM)
1020 nM: IC50 (second compound 3.16 µM)
inactive: viability, T/C (second compound 0.0316 µM, first compound 0.0316 µM) 95.8% | viability, T/C (second compound 0.0316 µM, first compound 0.1 µM) 96.9% | viability, T/C (second compound 0.0316 µM, first compound 0.316 µM) 102% | viability, T/C (second compound 0.0316 µM, first compound 1 µM) 77.2% | viability, T/C (second compound 0.0316 µM, first compound 3.16 µM) 14.2% | viability, T/C (second compound 0.0316 µM, first compound 10 µM) 19.1% | viability, T/C (second compound 0.1 µM, first compound 0.0316 µM) 94.4% | viability, T/C (second compound 0.1 µM, first compound 0.1 µM) 91.4% | viability, T/C (second compound 0.1 µM, first compound 0.316 µM) 98.1% | viability, T/C (second compound 0.1 µM, first compound 1 µM) 78.8% | viability, T/C (second compound 0.1 µM, first compound 3.16 µM) 19.9% | viability, T/C (second compound 0.316 µM, first compound 0.0316 µM) 84.9% | viability, T/C (second compound 0.316 µM, first compound 0.1 µM) 86.8% | viability, T/C (second compound 0.316 µM, first compound 0.316 µM) 71.3% | viability, T/C (second compound 0.316 µM, first compound 1 µM) 67% | viability, T/C (second compound 0.316 µM, first compound 3.16 µM) 15.5% | viability, T/C (second compound 0.316 µM, first compound 10 µM) 14.1% | viability, T/C (second compound 1 µM, first compound 0.0316 µM) 84.5% | viability, T/C (second compound 1 µM, first compound 0.1 µM) 72.5% | viability, T/C (second compound 1 µM, first compound 0.316 µM) 74.5% | viability, T/C (second compound 1 µM, first compound 1 µM) 56.2% | viability, T/C (second compound 1 µM, first compound 3.16 µM) 11.7% | viability, T/C (second compound 1 µM, first compound 10 µM) 12.7% | viability, T/C (second compound 3.16 µM, first compound 0.0316 µM) 72.4% | viability, T/C (second compound 3.16 µM, first compound 0.1 µM) 72.3% | viability, T/C (second compound 3.16 µM, first compound 0.316 µM) 61% | viability, T/C (second compound 3.16 µM, first compound 1 µM) 51.2% | viability, T/C (second compound 10 µM, first compound 0.0316 µM) 63.3% | viability, T/C (second compound 10 µM, first compound 0.1 µM) 56.9% | viability, T/C (second compound 10 µM, first compound 0.316 µM) 57.8% | viability, T/C (second compound 10 µM, first compound 1 µM) 25.3%
418 nM: IC50 (second compound 10 µM)
1460 nM: IC50 (second compound 0.316 µM)
active: viability, T/C (second compound 0.1 µM, first compound 10 µM) 9.57% | viability, T/C (second compound 3.16 µM, first compound 3.16 µM) 0.28% | viability, T/C (second compound 3.16 µM, first compound 10 µM) 0.21% | viability, T/C (second compound 10 µM, first compound 3.16 µM) 0.24% | viability, T/C (second compound 10 µM, first compound 10 µM) 0.26%
